ChEMBL document CHEMBL4414652, “Identification of Methionine Aminopeptidase-2 (MetAP-2) Inhibitor M8891: A Clinical Compound for the Treatment of Cancer” (J Med Chem, 2019)
Values after ≈ are worked out from the molar mass of the structure shown.

Key:
[1] = biological target: Methionine aminopeptidase 1 (Homo sapiens, UniProt P53582)
Description: Inhibition of N-terminal MetAP1 (unknown origin)

in vivo [2] = conditions: mouse, faeces, iv
Description: Drug recovery in iv dosed mouse feces

[3] = Drug recovery in dog at 0.2 mg/kg, iv measured up to 72 hrs; type: ADME, organism-based, Canis lupus familiaris; conditions: in vivo
[4] = Drug recovery in monkey at 0.2 mg/kg, iv measured up to 72 hrs; type: ADME, organism-based, Macaca mulatta; conditions: rhesus monkey, in vivo
[5] = mouse, in vivo, iv, 1 mg/kg
in vivo [6] = conditions: mouse, iv
Description: Half life in iv dosed mouse

physchem = conditions: PBS buffer
Description: Solubility of compound in PBS buffer

in vitro [7] = conditions: mouse, plasma
Description: Protein binding in mouse plasma assessed as unbound fraction

in vitro [8] = conditions: human, plasma
Description: Protein binding in human plasma assessed as unbound fraction

Description for CAKI-1: Antitumour activity against human Caki1 cells xenografted in nude CD-1 mouse assessed as tumor growth at 25 mg/kg, po BID for 36 days relative to control
Description for U-87 MG: Antitumour activity against human U87MG cells xenografted in nude CD-1 mouse assessed as tumor growth at 20 mg/kg, po administered daily for 14 days relative to control

Row | SMILES | IC50 [1] [µM] | dose excreted (in vivo [2]) [%] | other results
1 | O=C1CCc2cc(N3CC[C@](O)(C(=O)NCc4cc(F)c(F)c(F)c4)C3=O)ccc2N1 | > 10 |  | 
2 | CCNC(=O)c1cc2cc(N3CC[C@](O)(C(=O)NCc4cc(F)cc(Cl)c4)C3=O)ccc2[nH]1 | > 10 |  | 
3 | O=C(NCc1cc(F)cc(Cl)c1)[C@@]1(O)CCN(c2cnc3[nH]ccc3c2)C1=O | > 10 | 2.3 | T/C (U-87 MG): 45%
4 | O=C(NCc1cc(F)cc(F)c1)[C@@]1(O)CCN(c2ccc3[nH]ncc3c2)C1=O | > 10 | < 1 | 
5 | O=C(NCc1cc(F)cc(F)c1)[C@@]1(O)CCN(c2cnc3[nH]ccc3c2)C1=O | > 10 | < 1 | T/C (CAKI-1): 39%
6 | NCCCNC(=O)c1cc2cc(N3CC[C@](O)(C(=O)NCc4cc(F)cc(Cl)c4)C3=O)ccc2[nH]1 | > 10 |  | 
7 | O=C1CCc2cc(N3CC[C@](O)(C(=O)NCc4cc(F)ccc4Cl)C3=O)ccc2N1 | > 10 |  | 
8 | O=C1CCc2cc(N3CC[C@](O)(C(=O)NCc4c(F)cccc4Cl)C3=O)ccc2N1 | > 10 |  | 
9 | O=C1CCc2cc(N3CC[C@](O)(C(=O)NCc4cccc(F)c4F)C3=O)ccc2N1 | > 10 |  | 
10 | O=C1CCc2cc(N3CC[C@](O)(C(=O)NCc4cccc(Cl)c4F)C3=O)ccc2N1 | > 10 |  | 
11 | O=C1CCc2cc(N3CC[C@](O)(C(=O)NCc4cc(F)cc(Cl)c4F)C3=O)ccc2N1 | > 10 |  | 
12 | O=C1CCc2cc(N3CC[C@](O)(C(=O)NCc4cc(F)cc(F)c4F)C3=O)ccc2N1 | > 10 |  | 
13 | O=C1CCc2cc(N3CC[C@](O)(C(=O)NCc4c(F)cccc4F)C3=O)ccc2N1 | > 10 |  | 
14 | O=C1CCc2cc(N3CC[C@](O)(C(=O)NCc4c(F)ccc(F)c4F)C3=O)ccc2N1 | > 10 |  | 
15 | O=C(NCc1cc(F)cc(Cl)c1)[C@@]1(O)CCN(c2cnc3[nH]cc(Cl)c3c2)C1=O | > 10 | 1.5 | 
16 | O=C1CCc2cc(N3CC[C@](O)(C(=O)NCc4ccc(F)c(Cl)c4F)C3=O)ccc2N1 | > 10 |  | 
17 | O=C(NCc1cc(F)cc(F)c1)[C@@]1(O)CCN(c2cnc3[nH]cc(Cl)c3c2)C1=O | > 10 | 2.7 | 

Now from value to molecule, other results behind:

Row | IC50 [1] [µM] | dose excreted (in vivo [2]) [%] | SMILES | other results
18 | > 10 |  | O=C1CCc2cc(N3CC[C@](O)(C(=O)NCc4cc(F)cc(Cl)c4)C3=O)cc(F)c2N1 | 
19 | > 10 |  | CS(=O)(=O)Nc1cccc(N2CC[C@](O)(C(=O)NCc3cc(F)cc(Cl)c3)C2=O)c1 | 
20 | > 10 |  | CN1C(=O)CCc2cc(N3CC[C@](O)(C(=O)NCc4cc(F)cc(Cl)c4)C3=O)ccc21 | 
21 | > 10 | < 1 | O=C(NCc1cc(F)cc(Cl)c1)[C@@]1(O)CCN(c2ccc3[nH]ncc3c2)C1=O | 
22 | > 10 |  | O=C1CCc2cc(N3CC[C@](O)(C(=O)NCc4cc(F)cc(F)c4)C3=O)ccc2N1 | 
23 | > 10 | < 1 | O=C(NCc1cc(F)cc(Cl)c1)[C@@]1(O)CCN(c2ccc3[nH]ccc3c2)C1=O | 
24 | > 10 | 23 | O=C1CCc2cc(N3CC[C@](O)(C(=O)NCc4cc(F)cc(Cl)c4)C3=O)ccc2N1 | Drug recovery [3]: Active; Drug recovery [4]: Active; AUC [5]: 19 ng·h/mL; T/C (U-87 MG): 45%; half-life (in vivo [6]): 3 h; solubility (physchem): 90 µg/mL (≈ 208 µM); fraction unbound (in vitro [7]): 0.017; fraction unbound (in vitro [8]): 0.023
25 | > 10 |  | Cc1cc2cc(N3CC[C@](O)(C(=O)NCc4cc(F)cc(Cl)c4)C3=O)ccc2[nH]1 | 
